Earlier results in patent publication US8058260B2, “2′-C-methyl-ribofuranosyl cytidine prodrugs, pharmaceutical compositions and uses thereof” (XenoPort, Inc., priority 2006, dated 2011).
Like-named read-outs stand apart in the source and are kept apart here.

Columns and labels:
[1] = human, in vivo
HCV = settings: clinical evaluation as a treatment for HCV
HCV NS5B polymerase = HCV NS5B polymerase (Hepatitis C virus genotype 1b, UniProt P26663)
Sequence of HCV NS5B polymerase (P26663 2420-3010): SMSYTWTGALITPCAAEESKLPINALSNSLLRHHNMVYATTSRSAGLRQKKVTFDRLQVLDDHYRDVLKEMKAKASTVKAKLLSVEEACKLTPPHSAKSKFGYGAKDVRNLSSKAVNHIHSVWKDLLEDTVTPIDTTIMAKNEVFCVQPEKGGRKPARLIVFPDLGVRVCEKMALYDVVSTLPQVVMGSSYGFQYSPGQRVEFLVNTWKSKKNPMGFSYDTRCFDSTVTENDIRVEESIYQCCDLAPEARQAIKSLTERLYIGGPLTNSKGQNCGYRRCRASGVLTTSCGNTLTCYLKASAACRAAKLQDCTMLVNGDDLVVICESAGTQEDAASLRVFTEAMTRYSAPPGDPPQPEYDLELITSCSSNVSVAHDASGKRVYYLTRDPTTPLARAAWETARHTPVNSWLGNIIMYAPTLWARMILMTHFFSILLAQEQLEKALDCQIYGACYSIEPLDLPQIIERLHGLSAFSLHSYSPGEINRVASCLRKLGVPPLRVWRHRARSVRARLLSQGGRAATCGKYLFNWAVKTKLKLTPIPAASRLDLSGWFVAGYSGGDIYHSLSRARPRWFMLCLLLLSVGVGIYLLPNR

Row | inhibitory activity against the HCV NS5B polymerase (HCV NS5B polymerase) | SMILES | bioavailability [1] | gastrointestinal toxicity / side-effects (in vivo, po) | antiviral activity (HCV) | gastrointestinal toxicity / side-effects (oral administration, nausea, vomiting, diarrhea in some patients)
1 |  | CC(C)[C@H](N)C(=O)O[C@@H]1[C@@H](CO)O[C@@H](n2ccc(N)nc2=O)[C@]1(C)O [NM 283, 3′-O-L-valinyl ester of β-D-2′-C-methyl-ribofuranosyl cytidine] | good bioavailability | gastrointestinal side-effects | significant antiviral activity | 
2 | potent inhibitory activity | C[C@@]1(O)[C@H](O)[C@@H](CO)O[C@H]1n1ccc(N)nc1=O [β-D-2′-C-methyl-ribofuranosyl cytidine] |  |  |  | gastrointestinal (GI) toxicity
